The source of these data is patent publication US5639765A, “Guanidinoalkyl glycine β-amino acids useful for inhibiting bone loss” (G. D. Searle & Co., priority 1995, dated 1997).

Where a name gives a salt, the structure may show the parent alone.

Experiment [1] deals with T1, Human vitronectin receptor (αv β3) (Homo sapiens, UniProt P05106+P06756).
T1 construct: purified from human placenta; from tissue; host or cells: human placenta
The experiment can be described thus: Solid Phase Receptor Assay, purified αv β3 (vitronectin receptor) competition with biotinylated vitronectin. Type of experiment: binding. The note with it: 1 nM biotinylated vitronectin, 2 h competition, room temperature, R = H, read-out: VnR/IC50. Here is the method:
Human vitronectin receptor(αv β3) was purified from human placenta as previously described [Pytela et al., Methods in Enzymology, 144:475-489 (1987)]. Human vitronectin was purified from fresh frozen plasma as previously described [Yatohgo et al., Cell Structure and Function, 13:281-292 (1988)]. Biotinylated human vitronectin was prepared by coupling NHS-biotin from Pierce Chemical Company (Rockford, Ill.) to purified vitronectin as previously described [Charo et al., J. Biol. Chem., 266(3):1415-1421 (1991)]. Assay buffer, OPD substrate tablets, and RIA grade BSA were obtained from Sigma (St. Louis, Mo.). Anti-biotin antibody was obtained from Calbiochem (La Jolla, Calif.). GRGDSP peptide was purchased from Bachem (Torrance, Calif.). Linbro microtiter plates were obtained from Flow Labs (McLean, Va.). ADP reagent was obtained from Sigma (St. Louis, Mo.).
This assay was essentially the same as previously reported [Niiya et al., Blood, 70:475-483 (1987)]. The purified human vitronectin receptor (αv β3) was diluted from stock solutions to 1.0 μg/mL in Tris-buffered saline containing 1.0 mM Ca^++, Mg^++, and Mn^++, pH 7.4 (TBS^+++). The diluted receptor was immediately transferred to Linbro microtiter plates at 100 μL/well (100 ng receptor/well). The plates were sealed and incubated overnight at 4° C. to allow the receptor to bind to the wells. All remaining steps were at room temperature. The assay plates were emptied and 200 μL of 1% RIA grade BSA in TBS^+++ (TBS^+++ /BSA) were added to block exposed plastic surfaces. Following a 2 hour incubation, the assay plates were washed with TBS^+++ using a 96 well plate washer. Logarithmic serial dilution of the test compound and controls were made starting at a stock concentration of 2 mM and using 2 nM biotinylated vitronectin in TBS^+++ /BSA as the diluent. This premixing of labeled ligand with test (or control) ligand, and subsequent transfer of 50 μL aliquots to the assay plate was carried out with a CETUS Propette robot; the final concentration of the labeled ligand was 1 nM and the highest concentration of test compound was 1.0×10^-4 M. The competition occurred for two hours after which all wells were washed with a plate washer as before. Affinity purified horseradish peroxidase labeled goat anti-biotin antibody was diluted 1:3000 in TBS^+++ /BSA and 125 μL were added to each well. After 30 minutes, the plates were washed and incubated with OPD/H2 O2 substrate in 100 mM/L Citrate buffer, pH 5.0. The plate was read with a microtiter plate reader at a wavelength of 450 nm and when the maximum-binding control wells reached an absorbance of about 1.0, the final A450 were recorded for analysis. The data were analyzed using a macro written for use with the EXCEL™ spreadsheet program. The mean, standard deviation, and % CV were determined for duplicate concentrations. The mean A450 values were normalized to the mean of four maximum-binding controls (no competitor added)(B-MAX). The normalized values were subjected to a four parameter curve fit algorithm [Rodbard et al., Int. Atomic Energy.Agency, Vienna, pp 469 (1977)], plotted on a semi-log scale, and the computed IC50 and corresponding R^2 was reported. GRGDSP, a peptide fragment of fibrinogen, was included on each plate as a positive control.

The subject of experiment [2] is osteoclastic activity. The note with it: cited from earlier work.
Experiment [3] relates to osteoclastic activity. The note with it: cited from earlier work. The source holds these as a separate data set.

`N=C(N)NCCCC(=O)NCC(=O)NC(CC(=O)O)c1cccnc1` (racemic) [Example 3, (±) β-[[2-[[4-[(aminoiminomethyl)amino]-1-oxobutyl]amino]-1-oxoethyl]amino]-3-pyridinepropanoic acid, bistrifluoroacetate salt]: in experiment [1], the IC50 was 23.1 nM.

Take `N=C(N)NCCCCCC(=O)NCC(=O)NC(CC(=O)O)c1cccnc1` (racemic) [Example 4, (±) β-[[2-[[6-[(aminoiminomethyl)amino]-1-oxohexyl]amino]-1-oxoethyl]amino]-3-pyridinepropanoic acid, bistrifluoroacetate salt]: in experiment [1], the IC50 amounted to 460 nM.

As to `N=C(N)NCCCC(=O)NCCC(=O)NC(CC(=O)O)c1cccnc1` (racemic) [Example 5, (±) β-[[3-[[4-[(aminoiminomethyl)amino]-1-oxobutyl]amino]-1-oxopropyl]amino]-3-pyridinepropanoic acid, bistrifluoroacetate salt], the IC50 in experiment [1] was 706 nM.

As for `N=C(N)NCC(CC(=O)NCC(=O)NC(CC(=O)O)c1cccnc1)c1ccccc1` (racemic) [Example 6, (±) β-[[2-[[4-[(aminoiminomethyl, amino]-1-oxo-3-phenylbutyl]amino]-1-oxoethyl]amino]-3-pyridinepropanoic acid, bistrifluoroacetate salt], in experiment [1], the IC50 turned out to be 31.6 nM.

As for `N=C(N)NCCCCC(=O)NCC(=O)NC(CC(=O)O)c1cccnc1` (stereo not drawn) [Example 1, β-[[2-[[5-[(aminoiminomethyl]amino]-1-oxopentyl]amino]-1-oxoethyl]amino]-3-pyridinepropanoic acid, bistrifluoroacetate salt], the IC50 in experiment [1] was 9.4 nM.

On to echistatin, for which the “inhibition of osteoclastic activity in vivo” value in experiment [2] is on record as “potent inhibitors”. In addition, the “inhibition of osteoclastic activity in vitro” value in experiment [3] is reported as “potent inhibitors”.
